Columns and labels:
[1] = target: Abl(T315I)(h) (Homo sapiens, UniProt P00519, T315I); assay: Protein kinase inhibition assay; type: biochemical; details: read-out: percent residual activity of Abl(T315I)(h)
Procedure: (§1) Certain compounds were tested for activity in protein kinase inhibition assays. All substrates were dissolved and diluted to working stocks in de-ionized water, apart from histone H1 (10× working stock in 20 mM MOPS pH 7.0), PDKtide (10× working stock in 50 mM Tris pH 7.0) ATF2 (which is typically stored at a 20× working stock in 50 mM Tris pH 7.5, 150 mM NaCl, 0.1 mM EGTA, 0.03% Brij-35, 50% glycerol, 1 mM benzamidine, 0.2 mM PMSF and 0.1% R-mercaptoethanol), KKLNRTLSFAEPG (SEQ ID NO:203) and RRRLSFAEPG (SEQ ID NO:204) (50 mM HEPES pH 7.4) and GGEEEEYFELVKKKK (SEQ ID NO:205) (20 mM MOPS pH 7.0). All kinases were pre-diluted to a 10× working concentration prior to addition into the assay. The composition of the dilution buffer for each kinase is detailed below.
(§2) In a final reaction volume of 25 μl, Abl (T3151) (h) (5-10 mU) is incubated with 8 mM MOPS pH 7.0, 0.2 mM EDTA, 50 μM EAIYAAPFAKKK (SEQ ID NO:206), 10 mM MgAcetate and [gamma-33P-ATP] (specific activity approx. 500 cpm/pmol, concentration as required). The reaction is initiated by the addition of the MgATP mix. After incubation for 40 minutes at room temperature, the reaction is stopped by the addition of 5 μl of a 3% phosphoric acid solution. 10 μl of the reaction is then spotted onto a P30 filtermat and washed three times for 5 minutes in 75 mM phosphoric acid and once in methanol prior to drying and scintillation counting.

[2] = target: ASK1(h) (Homo sapiens, UniProt Q99683); assay: Protein kinase inhibition assay; type: biochemical; details: read-out: percent residual activity of ASK1(h)
Sequence of ASK1(h) (Q99683 whole entry): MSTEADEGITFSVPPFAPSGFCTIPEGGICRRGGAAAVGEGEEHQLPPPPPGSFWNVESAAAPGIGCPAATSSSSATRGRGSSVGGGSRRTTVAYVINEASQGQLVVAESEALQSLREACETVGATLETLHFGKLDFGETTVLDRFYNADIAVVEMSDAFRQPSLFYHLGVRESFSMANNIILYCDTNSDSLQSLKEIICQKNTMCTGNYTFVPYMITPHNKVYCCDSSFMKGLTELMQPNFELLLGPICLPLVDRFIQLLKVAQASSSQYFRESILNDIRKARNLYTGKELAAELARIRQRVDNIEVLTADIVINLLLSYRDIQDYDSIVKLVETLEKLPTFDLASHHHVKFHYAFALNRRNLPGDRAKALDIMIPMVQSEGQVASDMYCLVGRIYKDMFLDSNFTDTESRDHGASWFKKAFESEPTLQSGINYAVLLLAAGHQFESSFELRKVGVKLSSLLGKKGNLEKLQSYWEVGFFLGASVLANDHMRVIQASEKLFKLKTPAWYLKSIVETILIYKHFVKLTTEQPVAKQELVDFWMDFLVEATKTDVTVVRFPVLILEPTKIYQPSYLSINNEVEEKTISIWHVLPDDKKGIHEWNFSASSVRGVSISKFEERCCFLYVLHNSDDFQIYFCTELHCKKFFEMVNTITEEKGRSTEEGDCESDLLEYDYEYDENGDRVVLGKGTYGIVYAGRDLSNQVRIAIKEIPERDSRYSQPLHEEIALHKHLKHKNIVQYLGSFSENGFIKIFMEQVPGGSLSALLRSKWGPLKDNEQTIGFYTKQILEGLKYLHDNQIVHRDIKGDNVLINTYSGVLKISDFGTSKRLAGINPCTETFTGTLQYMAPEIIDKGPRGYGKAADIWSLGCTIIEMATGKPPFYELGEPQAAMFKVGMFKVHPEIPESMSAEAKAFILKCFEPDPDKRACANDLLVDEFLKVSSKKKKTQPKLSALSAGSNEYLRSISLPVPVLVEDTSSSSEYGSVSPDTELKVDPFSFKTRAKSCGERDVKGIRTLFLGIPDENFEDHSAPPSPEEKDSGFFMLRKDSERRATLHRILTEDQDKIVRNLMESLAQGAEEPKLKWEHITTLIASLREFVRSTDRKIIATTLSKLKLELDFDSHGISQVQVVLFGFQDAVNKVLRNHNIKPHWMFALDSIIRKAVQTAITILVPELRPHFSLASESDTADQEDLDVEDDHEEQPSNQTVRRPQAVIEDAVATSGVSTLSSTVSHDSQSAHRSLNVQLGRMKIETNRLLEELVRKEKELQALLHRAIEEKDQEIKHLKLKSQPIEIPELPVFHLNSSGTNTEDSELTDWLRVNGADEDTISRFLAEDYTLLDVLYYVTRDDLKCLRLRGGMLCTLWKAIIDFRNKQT
Procedure: as §1
as §2, with “ASK1” for “Abl (T3151)”, “0.33 mg/ml myelin basic protein,” for “50 μM EAIYAAPFAKKK (SEQ ID NO:206),”

[3] = target: CK2(h) (Homo sapiens, UniProt P68400); assay: Protein kinase inhibition assay; type: biochemical; details: read-out: percent residual activity of CK2(h)
Sequence of CK2(h) (P68400 whole entry): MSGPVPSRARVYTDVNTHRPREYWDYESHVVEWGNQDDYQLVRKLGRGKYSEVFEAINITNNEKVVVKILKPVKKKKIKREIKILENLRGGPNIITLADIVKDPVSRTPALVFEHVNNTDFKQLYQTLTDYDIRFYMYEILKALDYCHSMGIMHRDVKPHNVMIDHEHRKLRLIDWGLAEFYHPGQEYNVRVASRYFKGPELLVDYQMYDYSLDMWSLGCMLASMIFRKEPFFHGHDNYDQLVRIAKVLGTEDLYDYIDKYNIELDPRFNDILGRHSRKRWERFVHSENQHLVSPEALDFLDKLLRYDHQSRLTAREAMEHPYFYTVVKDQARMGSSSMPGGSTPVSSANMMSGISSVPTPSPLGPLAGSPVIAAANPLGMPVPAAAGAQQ
Sequence of CK2(h) (P67870 whole entry partner): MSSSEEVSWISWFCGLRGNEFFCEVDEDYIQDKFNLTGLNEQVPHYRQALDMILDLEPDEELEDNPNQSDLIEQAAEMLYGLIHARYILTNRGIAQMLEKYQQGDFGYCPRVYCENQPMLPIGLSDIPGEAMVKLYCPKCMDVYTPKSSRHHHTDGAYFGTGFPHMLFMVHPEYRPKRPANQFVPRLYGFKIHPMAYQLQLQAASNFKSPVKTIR
Procedure: as §1
In a final reaction volume of 25 μl, CK2 (h) (5-10 mU) is incubated with 20 mM HEPES pH 7.6, 0.15 M NaCl, 0.1 mM EDTA, 5 mM DTT, 0.1% Triton X-100, 165 μM RRRDDDSDDD (SEQ ID NO:215), 10 mM MgAcetate and [gamma-33P-ATP] (specific activity approx. 500 cpm/pmol, concentration as required). The reaction is initiated by the addition of the MgATP mix. After incubation for 40 minutes at room temperature, the reaction is stopped by the addition of 5 μl of a 3% phosphoric acid solution. […]

[4] = target: cKit(D816V)(h) (Homo sapiens, UniProt P10721, D816V); assay: Protein kinase inhibition assay; type: biochemical; details: read-out: percent residual activity of cKit(D816V)(h)
Sequence of cKit(D816V)(h) (P10721 26-976 D816V): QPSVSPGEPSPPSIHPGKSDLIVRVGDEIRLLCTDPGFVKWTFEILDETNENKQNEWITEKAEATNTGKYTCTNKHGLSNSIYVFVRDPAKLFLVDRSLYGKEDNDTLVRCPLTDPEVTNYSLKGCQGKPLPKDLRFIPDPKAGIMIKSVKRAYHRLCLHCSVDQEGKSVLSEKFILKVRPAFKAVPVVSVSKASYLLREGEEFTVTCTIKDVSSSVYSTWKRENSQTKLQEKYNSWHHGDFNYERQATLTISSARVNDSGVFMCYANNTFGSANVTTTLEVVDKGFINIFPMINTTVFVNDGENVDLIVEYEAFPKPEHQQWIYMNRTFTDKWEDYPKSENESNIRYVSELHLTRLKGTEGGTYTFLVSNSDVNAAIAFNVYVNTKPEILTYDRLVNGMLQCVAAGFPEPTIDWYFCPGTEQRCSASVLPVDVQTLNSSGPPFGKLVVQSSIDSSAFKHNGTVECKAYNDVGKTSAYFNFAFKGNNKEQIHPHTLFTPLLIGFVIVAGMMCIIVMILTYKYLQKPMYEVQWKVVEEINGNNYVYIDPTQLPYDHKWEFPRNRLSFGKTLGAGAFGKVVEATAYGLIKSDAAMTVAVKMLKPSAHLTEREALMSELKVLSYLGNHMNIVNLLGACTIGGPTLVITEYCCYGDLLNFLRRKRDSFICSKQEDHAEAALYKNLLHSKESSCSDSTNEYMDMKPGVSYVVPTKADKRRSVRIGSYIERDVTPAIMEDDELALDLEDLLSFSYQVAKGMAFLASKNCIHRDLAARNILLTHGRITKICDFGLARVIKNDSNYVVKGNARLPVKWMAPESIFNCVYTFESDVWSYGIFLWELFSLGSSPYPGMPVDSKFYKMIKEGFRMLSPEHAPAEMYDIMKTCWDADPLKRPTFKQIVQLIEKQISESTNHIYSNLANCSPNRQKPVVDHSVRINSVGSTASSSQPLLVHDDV
Procedure: as §1
In a final reaction volume of 25 μl, cKit (D816V) (h) (5-10 mU) is incubated with 8 mM MOPS pH 7.0, 0.2 mM EDTA, 10 mM MnCl2, 0.1 mg/ml poly(Glu, Tyr) 4:1, 10 mM MgAcetate and [gamma-33P-ATP] (specific activity approx. 500 cpm/pmol, concentration as required). The reaction is initiated by the addition of the MgATP mix. After incubation for 40 minutes at room temperature, the reaction is stopped by the addition of 5 μl of a 3% phosphoric acid solution. […]

[5] = target: Plk3(h) (Homo sapiens, UniProt Q9H4B4); assay: Protein kinase inhibition assay; type: biochemical; details: read-out: percent residual activity of Plk3(h)
Sequence of Plk3(h) (Q9H4B4 whole entry): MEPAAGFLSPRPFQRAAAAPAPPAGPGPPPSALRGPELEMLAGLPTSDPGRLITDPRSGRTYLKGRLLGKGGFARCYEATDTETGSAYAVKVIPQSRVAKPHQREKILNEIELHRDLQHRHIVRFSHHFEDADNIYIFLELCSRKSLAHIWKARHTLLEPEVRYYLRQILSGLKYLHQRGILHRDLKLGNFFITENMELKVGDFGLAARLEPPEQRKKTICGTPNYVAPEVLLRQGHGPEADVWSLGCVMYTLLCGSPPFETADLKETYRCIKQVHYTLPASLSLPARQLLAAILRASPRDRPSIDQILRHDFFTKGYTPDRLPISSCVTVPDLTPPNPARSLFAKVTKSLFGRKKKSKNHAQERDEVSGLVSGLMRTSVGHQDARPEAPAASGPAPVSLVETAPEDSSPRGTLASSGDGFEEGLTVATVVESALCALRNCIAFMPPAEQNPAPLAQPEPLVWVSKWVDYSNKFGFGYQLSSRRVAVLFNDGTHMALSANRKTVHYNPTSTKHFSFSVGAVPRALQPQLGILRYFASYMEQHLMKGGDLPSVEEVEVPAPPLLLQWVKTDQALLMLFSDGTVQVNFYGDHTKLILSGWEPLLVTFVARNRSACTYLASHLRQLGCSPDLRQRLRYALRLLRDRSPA
Procedure: as §1
as §2, with “Plk3” for “Abl (T3151)”, “2 mg/ml casein,” for “50 μM EAIYAAPFAKKK (SEQ ID NO:206),”

[6] = target: T1, nucleolin/cMyc QP DNA (Homo sapiens, UniProt P19338); assay: EMSA, nucleolin/QP ligand interaction; type: binding; details: nucleolin ~250 nM, 32P-labeled ligand 10 or 250 nM, 30 minutes (FIG. 1, FIG. 2)
T1 construct: without the N-terminal acidic stretches domain
T1 sequence (P19338 284-710 limits assumed): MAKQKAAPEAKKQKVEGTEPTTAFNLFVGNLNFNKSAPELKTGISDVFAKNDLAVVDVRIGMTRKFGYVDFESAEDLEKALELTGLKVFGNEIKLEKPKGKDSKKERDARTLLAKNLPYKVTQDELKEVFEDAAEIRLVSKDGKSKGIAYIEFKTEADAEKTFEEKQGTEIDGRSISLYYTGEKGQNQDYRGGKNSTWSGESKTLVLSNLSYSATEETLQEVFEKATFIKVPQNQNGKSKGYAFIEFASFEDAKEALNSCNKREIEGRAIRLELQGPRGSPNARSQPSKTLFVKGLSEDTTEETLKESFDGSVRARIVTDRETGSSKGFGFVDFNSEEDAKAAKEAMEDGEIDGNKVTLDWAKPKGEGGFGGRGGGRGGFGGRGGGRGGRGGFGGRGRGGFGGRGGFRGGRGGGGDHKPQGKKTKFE
Procedure: The following assays assessed effects of compounds on interactions between nucleolin and nucleic acid ligands capable of forming quadruplex (QP) and hairpin (HP) secondary structures. Nucleic acid ligands tested were a cMyc QP DNA having nucleotide sequence 5′-[…]-3′ (SEQ ID NO: 176) and a HP pre-rRNA region to which nucleolin binds, having the sequence 5′-[…]-3′ (SEQ ID NO: 177). In the assays, recombinant nucleolin (˜250 nM), which was fused to maltose binding protein and had the sequence under accession number NM_005381 without the N-terminal acidic stretches domain, was incubated with each of the two ^32P-labeled nucleic acid ligands (10 or 250 nM). Nucleolin and the nucleic acid ligand were incubated in the presence or absence of a test compound of Formula A-1, B-1, C-6 or C-7 in an incubation buffer (12.5 mM Tris, pH 7.6, 60 mM KCl, 1 mM MgCl2, 0.1 mM EDTA, 1 mM DTT, 5% glycerol, 0.1 mg/ml BSA) for 30 minutes at room temperature. Structures for A-1 and B-1 are shown above and structures for C-6 and C-7 are shown hereafter: [drawing 17] The resulting complexes were separated on a 6% DNA retardation gel using 0.5× TBE with 20 mM KCl as a running buffer (i.e., electrophoresis mobility shift assay (EMSA)).

remaining activity at 2.5 µM [1] [%] | remaining activity at 2.5 µM [2] [%] | remaining activity at 2.5 µM [3] [%] | remaining activity at 2.5 µM [4] [%] | remaining activity at 2.5 µM [5] [%] | Compound | interference with the nucleolin/QP ligand interaction [6]
52 | 98 | 104 | 104 | 92 | CN1CCCC1CCNC(=O)c1cn2c3c(c(N4CCC(c5cnccn5)C4)c(F)cc3c1=O)Oc1cc3ccccc3cc1-2 (stereo not drawn) [Compound A-1] | interfered with the nucleolin/QP ligand interaction in a concentration dependent manner
106 | 110 | 102 | 103 | 86 | CC(=O)N1CCN(c2ccc3c(=O)c(C(=O)NCCN4CCCC4)c4n(C)c5ccccc5n4c3n2)CC1 [Compound B-1] | interfered with the nucleolin/QP ligand interaction in a concentration dependent manner

Reference: patent publication US20070117770A1, “Human ribosomal DNA (rDNA) and ribosomal RNA (rRNA) nucleic acids and uses thereof” (Cylene Pharmaceuticals, Inc., priority 2005, published 2007)
